Here are results for 92 molecules from a melting point compilation (Tetko et al.; mined from patent text by program, amines drawn as free bases though some values may be those of a salt).

Molecules are shown by their SMILES. Bounds are passed on as bounds.

By melting point is commonly meant the temperature of the solid-liquid transition.

Turning to `O=C1CN2Cc3cc(OCCCCCCn4ccnc4)ccc3N=C2N1`, the melting point was 188 to 189 °C. Take `COc1ccc(C=CC(=O)O)cc1-c1cc2c(cc1OCCCCCO)C(C)(C)CCC2(C)C`: the melting point fell in the range of 115 to 117 °C. For the molecule `Nc1nccc(-c2c[nH]c3nccc(Cl)c23)n1`, the melting point was more than 210 °C. The figure for `CC(C)CC(=O)Nc1c(C(=O)c2cc(Cl)ccn2)[nH]c2cc(Cl)ccc12` is 183 to 184 °C; for `CCOC(=O)c1ncn2c1C(C)N=C(c1ccccc1)c1cc(Br)ccc1-2` (configuration not stated) it is 164 to 165 °C; for `COC=C1C(=O)NC(=O)c2ccc(OC)cc21` it is 245 to 247 °C. Take `COC(=O)c1ccc(C(=O)OC)c(S(N)(=O)=O)c1`: the melting point was 165 to 170 °C. Take `CCOC(=O)C1=C(C)N=C(SCc2ccc(OC)cc2)N(C(=O)OCC)C1c1ccccc1SC` (configuration not stated): the melting point lay in the range of 87 to 89 °C. The molecule `CCC(C)(C)c1ccc(O)c(C(=O)Nc2ccc([N+](=O)[O-])cc2C)c1` gave a melting point of 150 to 151 °C. As for `Oc1ccc2c(c1)CCC(NCC(O)COc1cccc3ccccc13)C2` (configuration not stated), the figure is 118 to 120 °C.

`CCOC(=O)NC[C@H]1CN(c2ccc3c(c2)CCCc2cn[nH]c2-3)C(=O)O1`: the melting point lay in the range of 122 to 126 °C.

On to `O=C(O)CCN1C(=O)c2ccc([N+](=O)[O-])cc2C1=O`, for which the melting point is 206 to 208 °C. `Cc1ccc2[nH]cc(C3=C(c4cn(C)c5ccc(C)cc45)C(=O)N(C)C3=O)c2c1` gave a melting point of 110 to 112 °C. As to `CCOC(c1cccc2cccnc12)n1c(NC2CCN(C(CN)C(C)C)CC2)nc2ccccc21` (configuration not stated), the melting point was found to be 202 °C.

In the case of `CC(C)(C(=O)NCCn1ccc2ncnc(Nc3ccc(Oc4cccc(C(F)(F)F)c4)c(Cl)c3)c21)S(C)(=O)=O`, the melting point fell in the range of 167 to 168 °C.

On to `CC1CC(=O)NN=C1c1ccc(NC(=O)CCBr)cc1` (configuration not stated), for which the melting point was 215 to 217 °C. Regarding `COc1nc2nc(C=C3C(=O)N4C(C(=O)O)=CSC34)cn2c2c1CCC2` (configuration not stated), the melting point is more than 250 °C. With `O=C(O)Cc1ccc(I)c(OCC(F)(F)F)c1`, the melting point was 153 to 154 °C.

In turn, `Cn1c(=O)[nH]c(=O)n(-c2cc(O)ccc2Br)c1=O` gave a melting point of 265 to 270 °C. As for `CNC(=O)N(C)c1nnc(SCC(=O)OC(C)(C)C)s1`, the melting point amounted to 174 °C. For the molecule `CCCCCCCCOC(=O)NCCC(=O)O`, the melting point fell in the range of 70 to 72 °C. On to `CCCCc1cc2c(=O)n3cc(C#N)ccc3nc2s1`, for which the melting point lay within 216 to 217 °C. In the case of `Cc1nc(S(=O)(=O)CC(=O)OCc2cccs2)nc(C)c1Br`, the melting point was 87 to 88 °C.

In turn, `Clc1ccc(-c2nc(CCCCCc3nnn[nH]3)oc2-c2ccc(Cl)cc2)cc1` displayed a melting point of 100 °C.

Regarding `O=[N+]([O-])c1cnn2c1-c1ccccc1NC2C1CCCCC1` (configuration not stated), the melting point is 150 to 152 °C. In turn, `Cc1cc(-c2ccccc2)n2nc(C(F)(F)F)c(C#N)c2n1` showed a melting point of 143 to 148 °C. For `COC(=O)CCCc1cc2nc(Cl)ccc2n1S(=O)(=O)c1ccc(N(C)C)cc1`, the melting point was determined as 188 °C. In turn, `CC1C(=O)N(c2ccccc2)C(=S)N1c1ccc(Oc2ccc(O)cc2)cc1` (configuration not stated) displayed a melting point of 106 to 108 °C. `O=C(CCN1CCN(Cc2ccccc2)CC1)c1ccc2oc3ccccc3c2c1` registered a melting point of 135 to 136 °C. For the molecule `O=C(O)CCCN(Cc1cccc(Cl)c1)Cc1cccc(Cl)c1`, the melting point is 170 to 173 °C. Turning to `O=C(O)CCC(=O)c1ccc(F)c(Br)c1`, the melting point is 108 to 110 °C.

In turn, `CCOC(=O)CC1=NCC(c2cccc(OCc3ccc4ccccc4n3)c2)O1` (configuration not stated) registered a melting point of 94 to 95 °C. In the case of `C(=C\C1CCCCC1)/c1nc(COc2ccc(CCCn3ccnc3)cc2)co1`, the melting point is 62 to 63 °C. Consider `CCOC(=O)C(=CNc1ccc(F)c(N2CCN(C(=O)OCC)CC2)n1)C(=O)OCC`, for which the melting point lay in the range of 144 to 145 °C. As to `COC1(C)CCc2c(C)c(OCc3ccccc3)c(C)c(C)c2O1` (configuration not stated), the melting point lay within 70 to 72.5 °C. As to `NC(=O)N(O)Cc1ccc(Oc2ccccc2)s1`, the melting point fell in the range of 114 to 116 °C. As to `Nc1cc(Cl)ccc1C(=O)NCCCc1cccnc1`, the melting point lay in the range of 145 to 147 °C.

Consider `COC[C@H]1CN(c2coc3cc(C(=O)OC)ccc23)C(=O)O1`, for which the melting point is 116 °C. For `Nc1c(Br)cc(Oc2cc(Br)c(N)c(Br)c2)cc1Br`, the melting point was in the range of 166 to 167 °C. As for `COC(=O)c1cccc(OS(N)(=O)=O)c1`, the melting point was 145 to 146 °C.

Regarding `O=c1c2cc(F)c(F)cc2n(CCF)c(=O)n1OCc1ccccc1`, the melting point fell in the range of 145 to 147 °C. Take `CCn1ncc2c(NCC3CCCCC3)c3ccccc3nc21`: the melting point was 161 to 163 °C.

Molecule `COc1ccc2cccc(C(CNC(C)=O)COS(C)(=O)=O)c2c1` (configuration not stated) gave a melting point of 104 to 106 °C. For `CN1CCN(C(=O)OC2c3ccccc3C(=O)N2c2ccc3ccc(Br)nc3n2)CC1` (configuration not stated), the melting point was 260 °C. The molecule `CC1(C)COc2cc3ccccc3c(=O)n21` returned a melting point of 91 to 92 °C.

In the case of `C=CC(=O)c1ccc(OC(=O)c2ccc(C#N)cc2)cc1`, the melting point was found to be 122 °C. In turn, `Cc1cc(C)c(-c2csc(N)n2)c(C)c1` registered a melting point of 138 °C. The molecule `Cc1sc(N)c(C(=O)c2ccco2)c1C` displayed a melting point of 95 to 97 °C.

As for `COc1cc(CO)c(OC)c(CCl)c1`, the melting point was in the range of 48 to 50 °C. The molecule `CCCc1c2nc(C(=O)OC)cc(N)c2cc2c(=O)cc(C(=O)OCC)oc12` gave a melting point of 267 to 270 °C. In the case of `COc1ccc(CSCC(NC(=O)c2ccccc2)C(=O)NC(C)(C)c2ccccc2)cc1` (configuration not stated), the melting point came to 189 °C. `COc1cc(Oc2cccc(C(F)(F)F)c2)nc(C(=O)Nc2ccccc2)c1` showed a melting point of 131 to 133 °C. As for `CC(C)(C)OC(=O)N1C[C@@H]2CC1CN2c1cncc(Br)c1`, the figure is 149 °C; as for `COCCOc1cc2ncc(C#N)c(Nc3ccc4cn[nH]c4c3)c2cc1OCCOC`, 105 to 110 °C.

In turn, `Cc1nnc2cc(-c3ccccn3)ccn12` registered a melting point of 239 to 241 °C. Molecule `COc1cnn(-c2ccc(C)cc2)n1` returned a melting point of 65 to 67 °C. In turn, `Cc1ccccc1NC(=N)NC1CCCCC1` yielded a melting point of 145 to 146 °C. Take `CCSc1nc(=O)n(CC(C)(C)C)c(=O)n1N`: the melting point was in the range of 202 to 204 °C. Molecule `O=[N+]([O-])c1ccc(OC(c2ccc(F)cc2)(c2ccc(F)cc2)c2nccs2)cc1C(F)(F)F` yielded a melting point of 133 to 134 °C. The molecule `CC(=C1SC(=O)NC1=O)c1ccc(OCCCOc2c(-c3ccc(F)cc3)n(C)c3ccccc3c2=O)cc1` yielded a melting point of 262 to 264 °C. As for `COC(=O)C1(Nc2cc(Cl)c(Cl)cc2N)CCSC1` (configuration not stated), the figure is 162 °C; as for `CC1C(=O)Oc2cc(N3CCCCC3)c(Cl)cc21` (configuration not stated), 108 to 111 °C; as for `Cc1c(C(=O)O)oc2c(c1=O)CSc1ccccc1-2`, 299 to 301 °C.

Molecule `O=C(O)CCCCCCCc1cncc2ccccc12` showed a melting point of 99 to 100 °C.

`Nc1cccc(OCCCN2CCC(c3noc4cc(F)ccc34)CC2)c1` returned a melting point of 115 to 117 °C.

With `CCCc1nc(NN)nc(O)c1Cc1ccc(-c2ccccc2C#N)cc1`, the melting point was 191 °C. Consider `COC(=O)c1ccc(NN)cc1S(=O)(=O)NC(C)(C)C`, for which the melting point was in the range of 133 to 136 °C. In turn, `O=S=NNc1cccc(C(F)(F)F)c1` gave a melting point of 100 °C. In turn, `Cc1cccc(C(C)C)c1NC(=O)Nc1c(C)nc(-c2ccccc2)nc1-c1ccccc1Cl` gave a melting point of 266 to 267 °C. `CCn1nc2c(N)nc3cnccc3c2c1CC(C)(C)O`: the melting point was 277 to 279 °C. `CS(=O)c1c(C(=O)c2cnoc2C2CC2)ccc(Cl)c1Cl` (configuration not stated) came in with a melting point of 110 to 112 °C. The molecule `CCCC(C)(Oc1ccccc1)C(=O)OC1CC(O)C=C2C=CC(C)C(CCC3CC(O)CC(=O)O3)C21` (mixture of isomers) registered a melting point of 151 to 153 °C. Regarding `COc1cc(COc2nn(Cc3ccccc3)cc2C(N)=O)ccc1OCc1nc(-c2ccccc2)oc1C`, the melting point fell in the range of 164 to 165 °C.

`CC(=O)C(C)(C)Nc1ccccc1`: the melting point lay within 65 to 66 °C. Molecule `CSc1cc(C)nc(SC)c1NC(=O)CCCCCCSc1nc2c(C)c(Cl)cc(C(C)C)c2o1` came in with a melting point of 129 to 131 °C. In turn, `Clc1nc(Oc2ccccc2)nc(Oc2ccccc2)n1` showed a melting point of 119 to 121 °C.

For `Cn1cc(-c2ccccc2)c(=S)c(-c2ccccc2)n1`, the melting point was in the range of 122 to 123 °C. In turn, `Oc1ccc(-c2cc3c(Br)c(O)cc(Br)c3o2)cc1` displayed a melting point of 215 to 217 °C.

In turn, `Fc1ccc2c(CN3CCN(c4ccc(Cl)cc4)CC3)n[nH]c2c1F` yielded a melting point of 167 to 168 °C.

In turn, `O=C(CCl)Oc1ccccc1O` came in with a melting point of 32 to 35 °C. In turn, `O=C(Cn1c(-c2cccc(Cl)c2)nc2cccnc21)Nc1ccccc1` came in with a melting point of 211 to 212 °C. Turning to `COc1ccc(-n2nc(Sc3ccc(C(C)(C)C)cc3)c(C)c(C#N)c2=O)cc1`, the melting point lay within 186 to 188 °C. `CC(C)(C#N)CNC(=O)c1n[nH]cc1NC(=O)c1ccccn1` yielded a melting point of 238 to 240 °C. `CC(=Cc1ccc(OCc2cccc(Cl)c2)cc1)[N+](=O)[O-]`: the melting point was in the range of 117 to 118 °C. For `COc1ccc(N2CCN(C(=O)C(c3ccccc3)n3cnc4[nH]ncc4c3=S)CC2)cc1` (configuration not stated), the melting point lay within 114 to 118 °C.

In the case of `CN1CCC(c2cccc(Cl)c2)(C(C)(C)O)CC1`, the melting point was 149 to 150 °C. In the case of `C[C@](N)(CO)CCc1ccc2oc(-c3ccccc3)nc2c1`, the melting point was found to be 128 °C. Molecule `CCOC(=O)n1c(C)c(Cc2ccc(Cl)cc2Cl)c2nc(C#N)ccc21` registered a melting point of 112 to 113 °C. The molecule `CSC(=CC(=O)c1ccccc1Br)N1CCN2CCC1CC2` registered a melting point of 107 to 108 °C. For `O=C(O)CCc1oc(-n2cccn2)nc1-c1ccc(Cl)cc1`, the melting point lay in the range of 171 to 172 °C.

Consider `CC(C)Cc1cc(OCCc2ccsc2)c2[nH]nc(Nc3nccs3)c2c1`, for which the melting point lay in the range of 150 to 151 °C. `CCCCCCCCCC(=O)Nc1ccc(S(=O)(=O)Nc2nnc(CC(=O)O)s2)cc1` came in with a melting point of 190 to 191 °C.
